Assay results published in US10077238B2, “Small molecule LFA-1 inhibitors” (ALLOCYTE PHARMACEUTICALS AG, priority 2014, dated 2018).
Values joined by “and” are separate entries in the source; they are usually repeats but may differ in a detail not shown here. Equal values may be shown once.

target: T1, LFA-1 (Homo sapiens, UniProt P20701); assay: V well cell adhesion assay, LFA-1-mediated Jurkat cell binding to ICAM-1 (LFA-1 adhesion); format: cell-based; conditions: Jurkat cells on ICAM-1/Fc; mean ±SD of ≥3 independent experiments in triplicates or single experiments in triplicates
T1 construct: endogenous in cells; host or cells: Jurkat cells
Procedure: Cell-Based Assay to Determine the Effect of the Compounds on LFA-1-Mediated Cell Adhesion (LFA-1 Adhesion)
Purpose of the Assay: The V well cell adhesion assay measures the ability of the compounds to interfere with LFA-1-mediated binding to ICAM-1 at cellular level. The assay has been successfully used in the past to identify and characterize small molecules LFA-1 inhibitors.
Experimental Protocol: The adhesion assay was performed in Vbottom 96-well plates as described previously [Weitz-Schmidt 2012]. Briefly, the plates were coated with anti-human IgG mAb diluted in coating buffer (20 mM Tris containing 150 mM NaCl, pH 8) (1 μg/mL) and incubated overnight at 4° C. The plates were flicked out and blocked with blocking buffer (50 mM Tris base, 150 mM NaCl, 1.5% BSA (w/v), pH 7.2) at 37° C. for 90 min. Then human recombinant ICAM-1/Fc (R&D Systems) diluted in coating buffer (0.3 μg/mL) was added to each well. The plates were incubated at 37° C. for 90 min and washed with binding buffer (50 mM Tris base, 150 mM NaCl, 1.5% BSA (w/v), 2 mM MgCl2, 2 mM MnCl2, 5 mM D-glucose monohydrate, pH 7.2-7.4) to remove unbound ligand.
Jurkat cells were cultured under standard conditions as recommended by the American Type Culture collection (ATCC). The cells were fluorescently labelled with BCECF-AM in PBS (1 μg/mL) at 37° C. for 20 min in the dark, centrifuged and washed with PBS. The test compounds were dissolved in DMSO at 10 mM and serially pre-diluted in DMSO (100%) to avoid precipitation, before performing final dilution steps in binding buffer.
The labelled Jurkat cells were re-suspended in binding buffer and test compounds or solvent control were added. The DMSO concentration was kept constant in all samples (1% DMSO as final assay concentration). After 40 min at 37° C. (LFA-1 activation and compound pre-incubation step) the cell suspension (3×10^5 cells/mL in binding buffer) was pipetted up and down and transferred to the ligand-coated microtiter V well plates (30 000 cells/well). The plates were centrifuged for 4 min at room temperature (rt) at 1000 rpm (Centrifuge Eppendorf 5810 R), setting the brake off Non-adherent cells that accumulated in the center of the Vbottom were quantified using a fluorescence reader with the filter sets allowing excitation at 485 nm and quantification of emission at 535 nm. The determination of the half maximal inhibitory concentration (IC50) of the compounds was calculated using the software GraphPad Prism 6.

T1 sequence (P20701 26-1170): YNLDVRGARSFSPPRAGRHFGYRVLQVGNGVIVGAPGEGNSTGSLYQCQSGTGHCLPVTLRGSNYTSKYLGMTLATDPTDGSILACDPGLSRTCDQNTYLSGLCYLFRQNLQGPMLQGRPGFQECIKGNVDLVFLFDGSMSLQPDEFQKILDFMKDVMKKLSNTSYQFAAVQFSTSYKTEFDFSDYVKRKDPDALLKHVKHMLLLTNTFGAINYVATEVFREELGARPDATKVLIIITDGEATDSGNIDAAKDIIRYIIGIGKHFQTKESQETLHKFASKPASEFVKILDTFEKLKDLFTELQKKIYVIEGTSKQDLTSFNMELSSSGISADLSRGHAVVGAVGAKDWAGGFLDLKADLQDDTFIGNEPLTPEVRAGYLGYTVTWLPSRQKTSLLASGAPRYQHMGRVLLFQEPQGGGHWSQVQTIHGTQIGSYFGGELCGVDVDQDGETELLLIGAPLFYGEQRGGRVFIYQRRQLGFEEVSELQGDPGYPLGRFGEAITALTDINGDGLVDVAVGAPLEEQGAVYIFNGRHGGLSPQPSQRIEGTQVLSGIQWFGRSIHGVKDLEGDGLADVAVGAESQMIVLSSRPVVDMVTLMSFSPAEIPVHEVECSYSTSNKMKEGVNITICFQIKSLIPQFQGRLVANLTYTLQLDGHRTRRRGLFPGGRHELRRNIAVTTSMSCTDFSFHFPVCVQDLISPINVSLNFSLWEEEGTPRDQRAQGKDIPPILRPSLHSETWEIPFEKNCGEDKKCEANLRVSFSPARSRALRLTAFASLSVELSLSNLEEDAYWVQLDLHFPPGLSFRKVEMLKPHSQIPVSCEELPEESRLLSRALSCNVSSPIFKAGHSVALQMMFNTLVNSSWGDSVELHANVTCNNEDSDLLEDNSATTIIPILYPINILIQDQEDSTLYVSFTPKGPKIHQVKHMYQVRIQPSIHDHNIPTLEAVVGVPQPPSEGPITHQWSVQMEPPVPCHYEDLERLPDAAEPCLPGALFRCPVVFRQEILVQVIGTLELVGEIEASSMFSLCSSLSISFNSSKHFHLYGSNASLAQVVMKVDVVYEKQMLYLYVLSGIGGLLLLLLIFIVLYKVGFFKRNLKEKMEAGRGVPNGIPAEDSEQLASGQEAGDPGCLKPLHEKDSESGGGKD
T1 sequence (P05107 23-769 partner): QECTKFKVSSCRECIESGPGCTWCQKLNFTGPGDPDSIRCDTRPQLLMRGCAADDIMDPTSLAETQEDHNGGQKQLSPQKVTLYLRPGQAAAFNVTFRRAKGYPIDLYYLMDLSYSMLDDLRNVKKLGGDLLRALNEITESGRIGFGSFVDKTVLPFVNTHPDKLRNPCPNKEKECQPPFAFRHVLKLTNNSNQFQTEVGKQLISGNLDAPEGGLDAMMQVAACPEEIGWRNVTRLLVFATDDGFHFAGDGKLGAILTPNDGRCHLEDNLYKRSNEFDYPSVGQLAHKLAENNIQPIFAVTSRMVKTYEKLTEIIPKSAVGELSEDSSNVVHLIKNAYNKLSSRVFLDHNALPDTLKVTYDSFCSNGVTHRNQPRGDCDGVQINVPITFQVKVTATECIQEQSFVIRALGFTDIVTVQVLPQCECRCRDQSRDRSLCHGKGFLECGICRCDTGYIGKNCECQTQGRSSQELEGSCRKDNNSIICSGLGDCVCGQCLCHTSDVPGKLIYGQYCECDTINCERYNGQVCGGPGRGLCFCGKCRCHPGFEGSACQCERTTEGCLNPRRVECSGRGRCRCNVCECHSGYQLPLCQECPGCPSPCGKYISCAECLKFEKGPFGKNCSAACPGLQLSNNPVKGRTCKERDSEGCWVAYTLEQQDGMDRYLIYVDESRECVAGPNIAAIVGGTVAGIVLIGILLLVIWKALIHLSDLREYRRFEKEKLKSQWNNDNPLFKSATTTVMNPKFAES

SMILES | IC50
C[C@]12C(=O)N(c3cc(Cl)cc(Cl)c3)C(=O)[C@H]1[C@@]2(C(=O)N1CCOCC1)c1ccc(OC(F)(F)F)cc1 (racemic) [4′m (racemate), rac-(1S,5R,6R)-3-(3,5-Dichlorophenyl)-1-methyl-6-[(morpholin-4-yl)carbonyl]-6-[4-(trifluoromethoxy)phenyl]-3-azabicyclo[3.1.0]hexane-2,4-dione] | 405 nM
N#Cc1ccc(C2(c3ccc(OC(F)(F)F)cc3)C3C(=O)N(c4cc(Cl)cc(Cl)c4)C(=O)C32)cc1 (single isomer, unassigned) [4r or 4′r diastereomer II] | 132 nM
O=C1[C@@H]2[C@H](C(=O)N1c1cc(Cl)cc(Cl)c1)C2(c1ccccc1)c1ccccc1 [Compound 4a, 3-(3,5-Dichlorophenyl)-6,6-diphenyl-3-azabicyclo[3.1.0]hexane-2,4-dione] | 8480 nM
C[C@]12C(=O)N(c3cc(Cl)cc(Cl)c3)C(=O)[C@H]1[C@@]2(C(=O)N1CCOCC1)c1ccc(Br)cc1 (racemic) [4′k (racemate), rac-(1S,5R,6R)-6-(4-Bromophenyl)-3-(3,5-dichlorophenyl)-1-methyl-6-[(morpholin-4-yl)carbonyl]-3-azabicyclo[3.1.0]hexane-2,4-dione] | 3470 nM
N#Cc1ccc(C2(c3ccc(OC(F)(F)F)cc3)C3C(=O)N(c4cc(Cl)cc(Cl)c4)C(=O)C32)cc1 (single isomer, unassigned) [4r or 4′r diastereomer I] | 963 nM
C[C@]12C(=O)N(c3cc(Cl)cc(Cl)c3)C(=O)[C@H]1[C@@]2(C(=O)N1CCOCC1)c1ccc(C(F)(F)F)cc1 (racemic) [4′l (racemate), rac-(1S,5R,6R)-3-(3,5-Dichlorophenyl)-1-methyl-6-[(morpholin-4-yl)carbonyl]-6-[4-(trifluoromethyl)phenyl]-3-azabicyclo[3.1.0]hexane-2,4-dione] | > 3000 nM
CC12C(=O)N(c3cc(Cl)cc(Cl)c3)C(=O)C1C2(c1ccccc1)c1ccccc1 (single isomer, unassigned) [4b enantiomer B] | > 10000 nM
C[C@]12C(=O)N(c3cc(Cl)cc(Cl)c3)C(=O)[C@H]1C2(c1ccc(OC(F)(F)F)cc1)c1ccc(OC(F)(F)F)cc1 (racemic) [4q (racemate), rac-(1S,5S)-3-(3,5-Dichlorophenyl)-1-methyl-6,6-bis[4-(trifluoromethoxy)phenyl]-3-azabicyclo[3.1.0]hexane-2,4-dione] | 101 nM
O=C1[C@@H]2[C@H](C(=O)N1c1cc(Cl)cc(Cl)c1)[C@@H]2c1ccccc1 [4′c, rel-(1R,5S,6r)-3-(3,5-Dichlorophenyl)-6-phenyl-3-azabicyclo[3.1.0]hexane-2,4-dione] | 1590 nM
O=C1[C@@H]2[C@H](C(=O)N1c1cc(Cl)cc(Cl)c1)[C@@H]2c1ccc(Br)cc1 [4′e, rel-(1R,5S,6r)-6-(4-Bromophenyl)-3-(3,5-dichloro-phenyl)-3-azabicyclo[3.1.0]hexane-2,4-dione] | 3330 nM

Other lines, results leading:

IC50 | SMILES
458 nM | CC12C(=O)N(c3cc(Cl)cc(Cl)c3)C(=O)C1C2(c1ccccc1)c1ccncc1 (single isomer, unassigned) [4 o or 4′o diastereomer II (racemate), rac-(1 S, 5S, 6S)- and rac-(1 S, 5S, 6R)-3-(3,5-Dichlorophenyl)-1-methyl-6-phenyl-6-(pyridin-4-yl)-3-azabicyclo[3.1.0]hexane-2,4-dione]
≥ 1000 nM | N#Cc1ccc(C2(c3ccncc3)C3C(=O)N(c4cc(Cl)cc(Cl)c4)C(=O)C32)cc1 (single isomer, unassigned) [4y or 4′y diastereomer II, rel-4-[(1 S, 5R, 6s)- and rel-4-[(1 S, 5R, 6r)-3-(3,5-Dichlorophenyl)-2,4-dioxo-6-(pyridin-4-yl)-3-azabicyclo[3.1.0]hexan-6-yl]benzonitrile]
71 nM | CC12C(=O)N(c3cc(Cl)cc(Cl)c3)C(=O)C1C2(c1ccncc1)c1ccc(C#N)cc1 (single isomer, unassigned) [4z or 4′z diastereomer II (racemate)]
562 nM and 530 nM | CC12C(=O)N(c3cc(Cl)cc(Cl)c3)C(=O)C1C2(c1ccc(C#N)cc1)c1ccc(OC(F)(F)F)cc1 (single isomer, unassigned) [4i/4′i diastereomer I (racemate), rac-4-[(1 S, 5S, 6S)- and rac-4-(1 S, 5S, 6R)-3-(3,5-Dichlorophenyl)-1-methyl-2,4-dioxo-6-[4-(trifluoro-methoxy)-phenyl]-3-azabicyclo[3.1.0]hexan-6-yl]benzonitrile]
> 1000 nM | N#Cc1ccc(C2(c3ccncc3)C3C(=O)N(c4cc(Cl)cc(Cl)c4)C(=O)C32)cc1 (single isomer, unassigned) [4y or 4′y diastereomer I, rel-4-[(1 S, 5R, 6s)- and rel-4-[(1 S, 5R, 6r)-3-(3,5-Dichlorophenyl)-2,4-dioxo-6-(pyridin-4-yl)-3-azabicyclo[3.1.0]hexan-6-yl]benzonitrile]
> 3000 nM | CC12C(=O)N(c3cc(Cl)cc(Cl)c3)C(=O)C1C2(c1ccccc1)c1ccncc1 (single isomer, unassigned) [4 o or 4′o diastereomer I (racemate), rac-(1 S, 5S, 6S)- and rac-(1 S, 5S, 6R)-3-(3,5-Dichlorophenyl)-1-methyl-6-phenyl-6-(pyridin-4-yl)-3-azabicyclo[3.1.0]hexane-2,4-dione]
1830 nM | COc1ccc(C2(c3ccc(Cl)cc3)C3C(=O)N(c4cc(Cl)cc(Cl)c4)C(=O)C32C)cc1 (single isomer, unassigned) [4s or 4′s diastereomer I (racemate), rac-(1 S, 5S, 6R)- and rac-(1 S, 5S, 6S)-6-(4-Chlorophenyl)-3-(3,5-dichlorophenyl)-6-(4-methoxyphenyl)-1-methyl-3-azabicyclo[3.1.0]hexane-2,4-dione]
870 nM | CC12C(=O)N(c3cc(Cl)cc(Cl)c3)C(=O)C1C2(c1ccccc1)c1ccco1 (single isomer, unassigned) [4t or 4′t Diastereomer I (racemate), rac-(1 S, 5S, 6R)- and rac-(1 S, 5S, 6S)-3-(3,5-Dichlorophenyl)-6-(furan-2-yl)-1-methyl-6-phenyl-3-azabicyclo[3.1.0]hexane-2,4-dione]
636 nM | C[C@]12C(=O)N(c3cc(Cl)cc(Cl)c3)C(=O)[C@H]1[C@@]2(C(=O)N1CCOCC1)c1ccc(C#N)cc1 (racemic) [4′n (racemate), rac-4-[(1S,5R,6R)-3-(3,5-Dichlorophenyl)-1-methyl-6-[(morpholin-4-yl)carbonyl]-2,4-dioxo-3-azabicyclo[3.1.0]hexan-6-yl]benzonitrile]
153 nM | COc1ccc(C2(c3ccc(Cl)cc3)C3C(=O)N(c4cc(Cl)cc(Cl)c4)C(=O)C32C)cc1 (single isomer, unassigned) [4s or 4′s diastereomer II (racemate), rac-(1 S, 5S, 6R)- and rac-(1 S, 5S, 6S)-6-(4-Chlorophenyl)-3-(3,5-dichlorophenyl)-6-(4-methoxyphenyl)-1-methyl-3-azabicyclo[3.1.0]hexane-2,4-dione]
> 1000 nM | CC12C(=O)N(c3cc(Cl)cc(Cl)c3)C(=O)C1C2(c1ccncc1)c1ccc(C#N)cc1 (single isomer, unassigned) [4z or 4′z diastereomer I (racemate)]
